Laboratory results from a melting point compilation (Tetko et al.; mined from patent text by program, amines drawn as free bases though some values may be those of a salt).

Q: With `CCOC(=O)[C@@H]1CSCCCCCCCC(CSC(C)=O)C(=O)N1` (some centres undefined) as the compound, how does the melting point read?
A: 193 to 196 °C

Q: Which melting point does the source give for `N=C(NO)c1cc(Oc2ccc(Cl)cc2Cl)c(O)cc1Cl` here?
A: 137 °C

Q: With `CC(C)C/C(=C\F)CN1C(=O)c2ccccc2C1=O` as the compound, how does the melting point read?
A: 57 to 60 °C

Q: With `CS(=O)CCN1CCC2(CC1)CC(=O)c1cc(NS(C)(=O)=O)ccc1O2` (centres undefined) as the compound, how does the melting point read?
A: 181 to 183 °C

Q: For `N#CC(C(=O)C(F)(F)C(F)(F)F)c1ccccc1` (centres undefined), which melting point is on record?
A: 94 to 95 °C

Q: For `O=C(O)COc1cccc(C(=O)O)c1OCC(=O)O`, which melting point is on record?
A: 195 to 197 °C

Q: Which melting point does the source give for `Cc1c(C)c2c(c(C)c1Br)C(c1ccc(-c3ccccc3)cc1)CO2` (centres undefined) here?
A: 153 to 154 °C

Q: For `CCCc1nc(-c2ccc(OCCCn3ccnc3)cc2)no1`, which melting point is on record?
A: 57 to 58 °C

Q: For `CN(C)C(=O)N(CCl)c1ccc(Cl)cc1`, which melting point is on record?
A: 37 to 43 °C

Q: For `COc1ccc2c(c1)OCC21C(=O)N(Cc2ccccn2)c2ccccc21` (centres undefined), which melting point is on record?
A: 122 to 123 °C

Q: With `CCc1cncc(-c2nc(C(=O)N(C)C)c3c4ccc(Cl)cc4n(C)c3n2)c1` as the compound, how does the melting point read?
A: 218 to 219 °C

Q: With `CC(C)(O)Cn1c(COCc2ccccc2)nc2c(N)nc3ccccc3c21` as the compound, how does the melting point read?
A: 196 to 198 °C

Q: With `Cc1cc(C(=O)CCc2sc(-c3ccc(C(F)(F)F)cc3)cc2C(C)C)ccc1OCC(=O)O` as the compound, how does the melting point read?
A: 139 to 143 °C

Q: With `CC(C)(CNS(=O)(=O)c1ccc(-c2ccccn2)s1)N1CCC(Oc2ccc(F)c(F)c2)CC1` as the compound, how does the melting point read?
A: 133 to 134 °C

Q: With `CNc1ccc2sc3ccccc3c(=O)c2c1` as the compound, how does the melting point read?
A: 172 to 175 °C

Q: Which melting point does the source give for `CCn1ncc(C(=O)c2ccc(S(C)(=O)=O)c(C3=NOCC3)c2Cl)c1OCc1ccccc1` here?
A: 70 to 75 °C

Q: For `CC(=O)c1ccc(Oc2ccc(F)cc2)cc1`, which melting point is on record?
A: 65 to 67 °C

Q: For `C[C@H]1N(C(=O)c2ccc(OCC(F)(F)C(F)F)cc2)CC(=O)O[C@@]1(Cn1cncn1)c1ccc(F)cc1F` (relative stereo), which melting point is on record?
A: 78 to 83 °C

Q: With `CC(O)C(C)(C)c1cc(Cn2cncn2)cc(C(C)(C)C#N)c1` (centres undefined) as the compound, how does the melting point read?
A: 83 to 84 °C

Q: With `CC(C)(C)P(c1cccc2ccccc12)C(C)(C)C` as the compound, how does the melting point read?
A: 95 to 97 °C

Q: With `CN(C)C(=O)N=NC(=O)N(C)C` as the compound, how does the melting point read?
A: 121 to 122 °C

Q: With `O=C(O)CNC[C@H]1O[C@H](c2ccccc2Cl)c2cc(Cl)ccc2N(Cc2ccccc2)C1=O` (relative stereo) as the compound, how does the melting point read?
A: 224 to 226 °C

Q: Which melting point does the source give for `Cc1ccccc1C(=O)Nc1ccc(C(=O)N2CCCC(=O)c3cc(Cl)ccc32)c(C)c1` here?
A: 134 to 142 °C

Q: For `COC(=O)c1nn(-c2ccccc2)c2sc(CN3CCOCC3)cc2c1=O`, which melting point is on record?
A: 167 to 169 °C

Q: For `CN1C(=O)Cc2cscc2S1(=O)=O`, which melting point is on record?
A: 148 to 149 °C

Q: Which melting point does the source give for `COC(=O)c1ccccc1COc1ccccc1Br` here?
A: 73 to 74 °C

Q: With `O=C(CCc1ccccc1)N[C@H](Cc1ccc(C(F)(F)F)cc1)[C@@H](O)c1ccc(F)cc1F` (racemic) as the compound, how does the melting point read?
A: 126 to 127 °C

Q: With `COc1ccc2c(c1)CN(C(=O)NO)N=C2Cc1c(Cl)cncc1Cl` as the compound, how does the melting point read?
A: 155 to 158 °C

Q: Which melting point does the source give for `Cc1c(Cc2ccccc2)c(=O)oc2cc(OC(C)c3nnn[nH]3)cc(OC(C)c3nnn[nH]3)c12` (centres undefined) here?
A: 91 to 104 °C

Q: With `COCC1OC(n2cnc3c(Cl)nc(Cl)nc32)C(OC(C)=O)C1OC(C)=O` (centres undefined) as the compound, how does the melting point read?
A: 59 to 61 °C

Q: With `COc1ccc2cc([C@H](C)C(=O)ON3C(=O)c4ccccc4C3=O)ccc2c1` as the compound, how does the melting point read?
A: 110 to 112 °C

Q: With `CNC(=S)C1(c2ccccn2)OCCCS1` (centres undefined) as the compound, how does the melting point read?
A: 157 °C

Q: Which melting point does the source give for `Cc1cc(Br)ccc1NC(=O)CC(=O)O` here?
A: 163 to 165 °C

Q: For `COc1c(-c2cc3c(s2)CCC/C3=N\OCc2cccnc2)ccc2c(=O)c(C(=O)O)cn(C3CC3)c12`, which melting point is on record?
A: 181 to 183 °C

Q: With `Cc1ccc(-n2ccc3c(Cl)nnc(Cl)c32)c(C)c1` as the compound, how does the melting point read?
A: 148 to 149 °C

Q: Which melting point does the source give for `Nc1nnc(-c2ccc3occ(-c4cc(F)ccc4F)c3c2)o1` here?
A: 245 to 246 °C

Q: Which melting point does the source give for `Oc1ccc(Nn2cccc2)c2ccccc12` here?
A: 83 to 84 °C

Q: Which melting point does the source give for `CCOc1cc(CCCN2CCc3cc(OC)c(OC)cc3C2)ccc1NC(=O)c1cccc2c(=O)c3cccc(F)c3[nH]c12` here?
A: 200 °C

Q: Which melting point does the source give for `CC(Sc1nc(N)cc(Cl)n1)c1ccc2ccccc2c1` (centres undefined) here?
A: 55 to 58 °C
